How the values were obtained:
Type in all cases: functional
Mus musculus [1] = assay: Effect on body temperature in mice at intraperitoneal dosage of 2 mg/kg, (compound administered 30 min before the test) after 60 min
Mus musculus [2] = assay: Effect on 8-OH-DPAT-induced hypothermia in mice (5 mg/kg) at intraperitoneal dosage of 4 mg/kg of compound after 45 mins
Mus musculus [3] = assay: Effect on 8-OH-DPAT-induced hypothermia in mice (5 mg/kg) at intraperitoneal dosage of 4 mg/kg of compound after 60 mins
Mus musculus [4] = assay: Effect on 8-OH-DPAT-induced hypothermia in mice (5 mg/kg) at intraperitoneal dosage of 8 mg/kg of compound after 45 mins
Mus musculus [5] = assay: Effect on body temperature in mice at intraperitoneal dosage of 1 mg/kg, (compound administered 30 min before the test) after 30 min
Mus musculus [6] = assay: Effect on body temperature in mice at intraperitoneal dosage of 1 mg/kg, (compound administered 30 min before the test) after 60 min
Mus musculus [7] = assay: Effect on 8-OH-DPAT-induced hypothermia in mice (5 mg/kg) at intraperitoneal dosage of 1 mg/kg of compound after 15 mins
Mus musculus [8] = assay: Effect on body temperature in mice at intraperitoneal dosage of 8 mg/kg, (compound administered 30 min before the test) after 90 min
Mus musculus [9] = assay: Effect on 8-OH-DPAT-induced hypothermia in mice (5 mg/kg) at intraperitoneal dosage of 2 mg/kg of compound after 60 mins
Mus musculus [10] = assay: Effect on body temperature in mice at intraperitoneal dosage of 8 mg/kg, (compound administered 30 min before the test) after 30 min
Mus musculus [11] = assay: Effect on body temperature in mice at intraperitoneal dosage of 8 mg/kg, (compound administered 30 min before the test) after 45 min
Rattus norvegicus [12] = assay: Tested for the effect on 8-OH-DPAT-induced behavior in reserpine pretreated rat against flat body posture at dosage of 16 mg/kg
Rattus norvegicus [13] = assay: Tested for the effect on 8-OH-DPAT-induced behavior in reserpine pretreated rat against forepaw treading at dosage of 16 mg/kg
Rattus norvegicus [14] = assay: Tested for the effect on 8-OH-DPAT-induced behavior in reserpine pretreated rat against forepaw treading at dosage of 8 mg/kg
Rattus norvegicus [15] = assay: Tested for the induction of lower lip retraction (LLR) by the investigated compounds in rat at dosage of 2 mg/kg
Rattus norvegicus [16] = assay: Tested for the induction of lower lip retraction (LLR) by the investigated compounds in rat at dosage of 4 mg/kg

COc1ccccc1N1CCN(CCCn2nnc3ccccc32)CC1
Delta t (Mus musculus [1]): 0.2 °C | Delta t (Mus musculus [2]): 0 °C | Delta t (Mus musculus [3]): 0.1 °C | Delta t (Mus musculus [4]): 0.7 °C | Delta t (Mus musculus [5]): 0 °C | Delta t (Mus musculus [6]): 0.1 °C | Delta t (Mus musculus [7]): 1.5 °C | Delta t (Mus musculus [8]): 0.2 °C | Delta t (Mus musculus [9]): 0.1 °C | Delta t (Mus musculus [10]): 0.4 °C | Delta t (Mus musculus [11]): 0.2 °C | Behavioral score (Rattus norvegicus [12]): 6.1 | Behavioral score (Rattus norvegicus [13]): 2.6 | Behavioral score (Rattus norvegicus [14]): 3.7 | LLR score (Rattus norvegicus [15]): 0.1 | LLR score (Rattus norvegicus [16]): 0

Source: ChEMBL document CHEMBL1127439, “Structure-activity relationship studies of central nervous system agents. 13. 4-[3-(Benzotriazol-1-yl)propyl]-1-(2-methoxyphenyl)piperazine, a new putative 5-HT1A receptor antagonist, and its analogs” (J Med Chem, 1994)
